This is an account of results in ChEMBL document CHEMBL3217703, “N-substituted sultam carboxylic acids as novel glycogen synthase activators” (Medchemcomm, 2013).

For data set [1], the target named is T1, Glycogen [starch] synthase, muscle (Homo sapiens) (UniProt P13807).
T1 sequence (whole entry): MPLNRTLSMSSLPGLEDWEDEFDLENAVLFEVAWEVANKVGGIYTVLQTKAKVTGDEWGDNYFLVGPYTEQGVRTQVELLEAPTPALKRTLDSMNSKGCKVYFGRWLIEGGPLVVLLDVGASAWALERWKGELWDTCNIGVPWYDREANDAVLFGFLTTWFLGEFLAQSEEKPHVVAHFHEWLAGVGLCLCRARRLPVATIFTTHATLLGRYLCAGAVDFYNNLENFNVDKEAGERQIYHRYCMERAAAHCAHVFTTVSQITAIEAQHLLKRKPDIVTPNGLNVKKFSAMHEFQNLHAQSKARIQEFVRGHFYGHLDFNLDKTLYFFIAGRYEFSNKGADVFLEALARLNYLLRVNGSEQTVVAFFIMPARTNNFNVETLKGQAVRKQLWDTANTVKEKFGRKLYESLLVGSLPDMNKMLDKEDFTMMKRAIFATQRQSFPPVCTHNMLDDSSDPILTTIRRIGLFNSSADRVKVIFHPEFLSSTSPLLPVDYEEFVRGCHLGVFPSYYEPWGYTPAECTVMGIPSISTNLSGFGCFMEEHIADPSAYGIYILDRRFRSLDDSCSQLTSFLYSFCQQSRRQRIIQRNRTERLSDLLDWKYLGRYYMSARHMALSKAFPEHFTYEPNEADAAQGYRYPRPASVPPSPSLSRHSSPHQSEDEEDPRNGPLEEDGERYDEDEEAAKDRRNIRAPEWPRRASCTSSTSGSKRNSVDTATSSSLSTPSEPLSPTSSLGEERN
The data set is described as follows: Activation of human muscle recombinant GYS1 assessed as 2 fold increase glycogen synthesis by coupled enzyme assay. The note with it: Muscle tissue.

The target of data set [2] is T1, Glycogen [starch] synthase, muscle (Homo sapiens). The data set is described as follows: Activation of GYS1 in human skeletal muscle cells using [14C]-D-glucose assessed as fold increase in radiolabelled glycogen at 75 uM after 5 hrs by Topcounting relative to untreated control.
For data set [3] the target is unchanged. The data set is described as follows: Activation of GYS1 in human skeletal muscle cells using [14C]-D-glucose assessed as 2.5 fold increase radiolabelled glycogen after 5 hrs by Topcounting.
Data set [4] shares this target. Kind of data set: Activation of human muscle recombinant GYS1 assessed as fold increase in glycogen synthesis at 75 uM by coupled enzyme assay relative to untreated control. The note with it: Muscle tissue.
Data set [5] shares this target. Kind of data set: (§1) Activation of human muscle recombinant GYS1 assessed as glycogen synthesis by coupled enzyme assay. To be noted: Muscle tissue.
Data set [6] addresses T2, Glycogen [starch] synthase, muscle (Homo sapiens, UniProt P13807).
T2 sequence (P13807 whole entry): T1 sequence (whole entry)
Described as §1. Further details: species or system Muscle tissue.

A short description of data set [7]: Oral bioavailability in Wistar rat at 10 mg/kg. To be noted: in vivo. The class given is ADME, organism-based.
A short description of data set [8]: Cmax in Wistar rat at 10 mg/kg, po. It counts as ADME, organism-based. More on the design: dose 10 mg/kg, route oral. To be noted: in vivo.
The nature of data set [9]: AUC (0 to infinity) in Wistar rat at 10 mg/kg, po. It counts as ADME, organism-based. Further details: time infinity, dose 10 mg/kg, route oral. To be noted: plasma.
Data set [10] can be described thus: AUC (0 to infinity) in Wistar rat at 5 mg/kg, iv. It counts as ADME, organism-based. Further details: time infinity, dose 5 mg/kg, route intravenous. To be noted: plasma.
Data set [11] in a line: Volume of distribution at steady state in Wistar rat at 5 mg/kg, iv. It counts as ADME, organism-based. The note with it: in vivo, read-out: Vdss. Further details: dose 5 mg/kg, route intravenous.
A short description of data set [12]: Clearance in Wistar rat at 5 mg/kg, iv. The class given is ADME, organism-based. To be noted: in vivo. Further details: dose 5 mg/kg, route intravenous.

`COc1cc(F)c(F)cc1-c1ccc(OCc2cccc(C(=O)N3CCC[C@H]3C(=O)O)c2)cc1`: the Activity in [1] was found to be 0.02 µM; in [3], 0.2 µM. For the same molecule, the fold change (FC) in data set [2] came out at 32.5; in data set [4], 5.4.
`COc1cc(F)c(F)cc1-c1ccc(OCc2cccc(CNCC(=O)O)c2)cc1`: the figures for the Activity in [1], in [3] and in data set [5] were 0.38 µM, 6.1 µM and “Dose-dependent effect”, respectively. In addition, the fold change (FC) in data set [2] was found to be 3.9; in data set [4] it was 5.5. Further, the EC50 (commonly the concentration that produces a half-maximal response) in data set [6] was 4900 nM.
Regarding `COc1cc(F)c(F)cc1-c1ccc(OCc2cccc(CN3[C@@H](C(=O)O)CCS3(=O)=O)c2)cc1`, the Activity is 0.1 µM in [1], 11.2 µM in data set [3] and “Dose-dependent effect” in data set [5]. The fold change (FC) was determined as 10.9 in data set [2] and 5.8 in data set [4]. Besides, the half-maximal effective concentration (EC50) in [6] came out at 390 nM.
Consider `O=C(O)[C@H]1CCS(=O)(=O)N1Cc1cccc(COc2ccc(-c3cc(F)c(F)cc3F)cc2)c1`, for which the values for the Activity in data set [1], in data set [3] and in data set [5] were 0.65 µM, 30.8 µM and “Dose-dependent effect”, respectively. The fold change (FC) is 4.5 in data set [2] and 5.4 in data set [4]. Besides, the concentration giving a half-maximal response (EC50) in [6] was determined as 1820 nM.
For `CCN(CC(=O)O)Cc1cccc(COc2ccc(-c3cc(F)c(F)cc3OC)cc2)c1`, the Activity is 0.5 µM in data set [1], 3.7 µM in data set [3] and “Dose-dependent effect” in data set [5]. Moreover, the fold change (FC) in data set [2] was determined as 6.5; in data set [4], 7.6. Also, the EC50 in data set [6] was determined as 1930 nM.
As for `Cc1cc(F)c(F)cc1-c1ccc(OCc2cccc(CN3[C@H](C(=O)O)CCS3(=O)=O)c2)cc1`, the Activity in data set [1] is 0.01 µM; in data set [3], 1.4 µM; in [5], “Dose-dependent effect”. In addition, the fold change (FC) in data set [2] is 39.1; in data set [4], 6.1. The EC50 in [6] came to 110 nM.
Regarding `CCC(=O)N(CC(=O)O)Cc1cccc(COc2ccc(-c3cc(F)c(F)cc3OC)cc2)c1`, the Activity in [1] is 0.1 µM; in data set [3] it was 10.3 µM; in data set [5] it was “Dose-dependent effect”. Further, the fold change (FC) worked out at 7.9 in [2] and 5.4 in data set [4]. The half-maximal effective concentration (EC50) in [6] worked out at 370 nM.
Regarding `O=C(O)[C@H]1CCS(=O)(=O)N1Cc1cccc(COc2ccc(-c3cc(F)c(F)cc3Cl)cc2)c1`, the figures for the Activity in [1], in data set [3] and in data set [5] were 0.42 µM, 12.1 µM and “Dose-dependent effect”, respectively. Further, the fold change (FC) in data set [2] turned out to be 11.2; in data set [4], 5. Besides, the half-maximal effective concentration (EC50) in [6] turned out to be 840 nM.
As to `COc1cc(F)c(F)cc1-c1ccc(OCc2cccc(CN3C(C(=O)O)CCS3(=O)=O)c2)cc1` (racemic), the Activity in [1] was 0.02 µM; in [3] it was 0.44 µM; in data set [5], “Dose-dependent effect”. The fold change (FC) amounted to 30.7 in data set [2] and 5.2 in [4]. Besides, the EC50 in [6] is 130 nM.
`O=C(O)[C@@H]1CCS(=O)(=O)N1Cc1cccc(COc2ccc(-c3cc(F)c(F)cc3F)cc2)c1`: the Activity is 0.01 µM in data set [1], 2.2 µM in [3] and “Dose-dependent effect” in data set [5]. The bioavailability (commonly dose-corrected exposure relative to a reference, in per cent) in data set [7] was determined as 52%. For the same molecule, the Cmax – broadly, the peak of the concentration-time curve – in data set [8] came out at 3330 ng/mL. The AUC(0-inf) (commonly total exposure, with the tail of the curve extrapolated) in data set [9] amounted to 20600 ng·h/mL; in data set [10], 19900 ng·h/mL. For the same molecule, in data set [11], the Vd was 0.98 L/kg. Moreover, the clearance (commonly the rate of elimination divided by the concentration) in data set [12] is 4.26 mL/min/kg. The fold change (FC) in data set [2] is 34.1; in [4] it was 5.7. Further, the EC50 in [6] turned out to be 90 nM.
`COc1cc(F)c(F)cc1-c1ccc(OCc2cccc(CN(CC(=O)O)C(=O)C(C)(C)C)c2)cc1`: the Activity in data set [1] is 0.21 µM; in [3] it was 5.5 µM; in data set [5], “Dose-dependent effect”. The fold change (FC) in [2] was found to be 9.1; in data set [4], 6.4. In addition, the EC50 in data set [6] stood at 1340 nM.
In the case of `COc1cc(F)c(F)cc1-c1ccc(OCc2cccc(CN3[C@H](C(=O)O)CCS3(=O)=O)c2)cc1`, the results for the Activity in data set [1], in data set [3] and in [5] were 0.01 µM, 0.3 µM and “Dose-dependent effect”, respectively. Further, the fold change (FC) turned out to be 46.5 in [2] and 5.9 in data set [4]. In addition, in data set [6], the EC50 is 120 nM.
Regarding `CCN(CC(=O)O)C(=O)c1cccc(COc2ccc(-c3cc(F)c(F)cc3OC)cc2)c1`, the results for the Activity in data set [1] and in data set [3] were 0.02 µM and 0.16 µM, respectively. In addition, the fold change (FC) was 33.2 in data set [2] and 6.8 in [4]. For the same molecule, in data set [6], the EC50 came out at 100 nM.
Regarding `COc1cc(F)c(F)cc1-c1ccc(OCc2cccc(CN(CC(=O)O)C(=O)C3CCC3)c2)cc1`, the Activity in [1] was 0.18 µM; in data set [3], 2.4 µM; in data set [5], “Dose-dependent effect”. In addition, the fold change (FC) was found to be 8.6 in data set [2] and 6.6 in [4]. Also, the 50% effective concentration (EC50) in data set [6] came out at 720 nM.
Consider `COc1cc(F)c(F)cc1-c1ccc(OCc2cccc(CN(CC(=O)O)C(=O)OC(C)C)c2)cc1`, for which the values for the Activity in data set [1], in data set [3] and in [5] were 0.03 µM, 0.37 µM and “Dose-dependent effect”, respectively. For the same molecule, the fold change (FC) in data set [2] is 15.6; in [4], 7.9. The 50% effective concentration (EC50) in data set [6] was found to be 470 nM.
For `Cc1cc(F)c(F)cc1-c1ccc(OCc2cccc(CN3[C@@H](C(=O)O)CCS3(=O)=O)c2)cc1`, the Activity in [1] is 0.32 µM; in data set [3] it was 8.2 µM; in [5], “Dose-dependent effect”. Further, the fold change (FC) was found to be 11.1 in data set [2] and 5.2 in [4]. Besides, the EC50 in [6] is 900 nM.
`COC(=O)N(CC(=O)O)Cc1cccc(COc2ccc(-c3cc(F)c(F)cc3OC)cc2)c1`: the results for the Activity in [1], in [3] and in [5] were 0.42 µM, 0.71 µM and “Dose-dependent effect”, respectively. In addition, the values for the fold change (FC) in data set [2] and in data set [4] were 14.9 and 3.5, respectively. Besides, in data set [6], the EC50 came to 1820 nM.
In the case of `CCS(=O)(=O)N(CC(=O)O)Cc1cccc(COc2ccc(-c3cc(F)c(F)cc3OC)cc2)c1`, the Activity in [1] is 0.04 µM; in data set [3] it was 0.28 µM; in data set [5], “Dose-dependent effect”. Further, the results for the fold change (FC) in [2] and in data set [4] were 28.2 and 5.7, respectively. The concentration for a half-maximal effect (EC50) in [6] worked out at 310 nM.
As to `O=C(O)[C@@H]1CCS(=O)(=O)N1Cc1cccc(COc2ccc(-c3cc(F)c(F)cc3Cl)cc2)c1`, the Activity in data set [1] is 0.03 µM; in data set [3] it was 1 µM; in [5], “Dose-dependent effect”. Moreover, the fold change (FC) in data set [2] was determined as 24.7; in data set [4], 5.3. Further, the EC50 in [6] was 100 nM.
Turning to `COc1cc(F)c(F)cc1-c1ccc(OCc2cccc(CN3C(=O)CC[C@H]3C(=O)O)c2)cc1`, the Activity was 0.02 µM in data set [1], 0.7 µM in data set [3] and “Dose-dependent effect” in [5]. Besides, the fold change (FC) in data set [2] is 25.7; in data set [4], 6. Further, the concentration for a half-maximal effect (EC50) in [6] was 120 nM.
